In one assay the target is T1, DNA-MIF/PAAN complex (Homo sapiens, UniProt P14174).
T1 construct: GST (N, cleaved yes); made in house; host or cells: Escherichia coli
Nature of the assay: Electrophoretic mobility shift assay (EMSA) of PAAN/MIF with biotin-labeled DNA substrate (PS30). The class given is binding. To be noted: 1-100 μM. As for the experimental part:
Electrophoretic mobility shift assay (EMSA). EMSA assays were performed using the Light-Shift Chemiluminescent EMSA kit (Thermo Scientific) following the manufactures instruction. Recombinant PAAN/MIF protein (2 μM) was incubated with 1-100 μM PAANIB-1 as indicated in the binding buffer containing 10 mM MgCl2 for 10 min and further incubated with biotin-labeled DNA substrates (10 nM) for 30 min on ice. The mixture were separated on 6% retardation polyacrylamide and transferred to a Nylon membrane. Immunoblot analysis was performed to detect the biotin-labeled DNA using the Chemiluminescent Nucleic Acid Detection Module (Thermo Scientific).

The next assay deals with pS6 kinase activity. Kind of assay: Immunoblot of pS6K, pS6 and p4E-BP1 levels in SH-SY5Y cells. The class given is cell-based. To be noted: 0.5 or 1 μM, 3 h. From the text:
FIGS. 14A-14G show the characterization of compound 121. […] Bars represent means±s.e.m. ***P<0.0005, two-way ANOVA followed by Tukey's post hoc test (n=4). […] Bars represent mean±s.e.m. ***P<0.0005, two-way ANOVA followed by Tukey's post hoc test (n=4). […] Bars represent means±s.e.m. **P<0.005, ***P<0.0005, one-way ANOVA followed by Tukey's post hoc test (n=3). […] Bar represent mean±s.e.m. ***P<0.0005, one-way ANOVA followed by Tukey's post hoc test (n=3). […] Quantification of inhibition of PARP-1 activity by compound 56, compound 121 and ABT-888 is shown. Graphs represent mean±s.e.m. ***P<0.0005, two-way ANOVA followed by Tukey's post hoc test (n=3). FIGS. 14F and 14G show Alamar blue cell viability assay from SH-SY5Y cells pre-incubated with either compound 56 or 121 in response to (14F) 0.5 μM staurosporine (STS) or (14G) from HT 22 cells incubated with 1 ng/ml of TNF-α with 50 μM z-VAD. Bars represent mean±s.e.m. ***P<0.0005, two-way ANOVA followed by Tukey's post hoc test (n=5).
Tissue lysate preparation and western blot analysis. […] Protein concentrations were determined using the BCA assay (Pierce) and samples were separated using SDS polyacrylamide gels and transferred onto nitrocellulose membranes. […]

T1 sequence (P14174 whole entry, one chain of several): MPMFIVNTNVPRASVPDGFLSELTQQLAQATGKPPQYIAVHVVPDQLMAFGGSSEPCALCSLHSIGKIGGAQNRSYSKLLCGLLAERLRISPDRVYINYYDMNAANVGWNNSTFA

As to `COc1ccc(CC[C@H]2OC(=O)[C@@H]3CCCCN3C(=O)C(=O)C(C)(C)COC(=O)C=CCCN(C)C(=O)[C@@H]3CCCN3C(=O)[C@H](COC(C)(C)C)N(C)C(=O)C(c3ccccc3)NC(=O)[C@H](C)N(C)C(=O)COc3cc(F)cc2c3)cc1OC` (mixture of isomers) [compound 121], the “interaction of PAAN/MIF with its substrate” value on DNA-MIF/PAAN complex is listed as “does not disrupt”. For the same compound, the “rapamycin sensitive pS6 kinase activity” value in the assay on pS6 kinase activity is given as “failed to inhibit”.

(Values after patent US20220372014A1, “NEUROPROTECTIVE COMPOUNDS AND METHODS OF USE THEREOF” (The Johns Hopkins University, priority 2019, published 2022).)
